The text below walks through data of patent US9957484B2, “Methods for promoting cell reprogramming” (Sanford-Burnham Medical Research Institute, priority 2011, dated 2018).

Molecules are shown by their SMILES.

For test [1], the target named is Cdk5/p35 (Homo sapiens, UniProt Q00535). The conditions noted are these: read-out: Potential Targets: Cdk5/p35, IC50; cited from earlier work.
For test [2], the target named is Cdk1/B (Homo sapiens, UniProt P06493). The settings on record: read-out: Potential Targets: Cdk1/B, IC50; cited from earlier work.
Test [3] addresses Cdk7/H/MAT1 (Homo sapiens, UniProt P50613). The conditions noted are these: read-out: Potential Targets: Cdk7/H/MAT1, IC50; cited from earlier work.
For test [4], the target named is Cdk2/E (Homo sapiens, UniProt P24941). The conditions noted are these: read-out: Potential Targets: Cdk2/E, IC50; cited from earlier work.
The target in test [5] is Cdk3/E (Homo sapiens, UniProt Q00526). The conditions noted are these: read-out: Potential Targets: Cdk3/E, IC50; cited from earlier work.
Test [6] deals with MEK1 (Homo sapiens, UniProt Q02750). The settings on record: kind of value not given; cited from earlier work.
The test system of test [7] is myosin II heavy chain. The settings on record: kind of value not given; cited from earlier work.
In test [8] the test system is Pdk1, Src, Pten and p85α. As to the kind of experiment: RT-qPCR of genes upstream of Akt. In kind it is cell-based, mouse. The conditions noted are these: MEFs transduced with 4F for three days, then 1 μM for two days. The protocol:
FIG. 22, is a graph plotting relative mRNA levels in MEFs. […] MEFs were first transduced with 4F for three days and then treated for another two days with DMSO or 1 μM B6. Total RNAs were harvested and analyzed for indicated factors, which reportedly function upstream of Akt.
(§1) mRNA quantitative PCR: Total RNAs were extracted using Trizol (Invitrogen). After extraction, 1 ug total RNA was used for RT using Superscript II™ (Invitrogen). Quantitative PCR was performed using a Roche LightCycler480™ II and the Sybr green mixture from Abgene (Ab-4166). Other primers were previously described (Takahashi et al. 2006 Cell 126:663-76).

Test [9] concerns 4F-transduced Oct4-GFP MEFs. As to the kind of experiment: Kinase inhibitor treatment of 4F-transduced Oct4-GFP MEFs, Oct4-GFP+ colony count (reprogramming efficiency). In kind it is cell-based, mouse.
Description: MEFs were cultured in DMEM (Invitrogen, 11995-065) with 10% FBS (Invitrogen) plus glutamine and NEAA. Only MEFs at passage of 0 to 4 were used for reprogramming. pMX-Oct4, Sox2, Klf4 and cMyc were purchased from Addgene. […] Viruses were harvested and combined 2 days later. For reprogramming, MEFs were seeded in 12-well plates and transduced with 4F virus the next day with 4 ug/ml Polybrene. One day later, the medium was changed to fresh MEF medium, and 3 days later it was changed to mES culture medium supplemented with LIF (Millipore, ESG1107). GFP+ colonies were picked at day 14 post-transduction, and expanded clones were cultured in DMEM with 15% FBS (Hyclone) plus LIF, thioglycerol, glutamine and NEAA. Irradiated CF1 MEFs served as feeder layers to culture mES cells and derived iPS clones.
All compounds are well-characterized protein kinase inhibitors. Compounds were diluted to 2 mM in 96-well plates. 4F-transduced cells were seeded into gelatin coated plates (4000 cells/well). Inhibitors were added every other day until day 13. Cells were then fixed with 4% paraformaldehyde for 20 min at room temperature and number of Oct4-GFP+ colonies was directly counted under a microscope. Cells were then stained with Vector red alkaline phosphatase substrate kit I™ (Vector laboratories, SK5100).
To define signaling mechanisms underlying reprogramming, a double-blind screen of 244 well-characterized cell-permeable protein kinase inhibitors was undertook to identify kinases that enhance or inhibit the process. Mouse embryonic fibroblasts from a transgenic line in which GFP expression is driven by the endogenous Oct4 promoter were chosen as the starting material for a reporter cell line of somatic cell reprogramming. Fully reprogrammed cells switch on endogenous Oct4 expression, making resultant iPS colonies GFP-positive and enabling quantification of reprogramming efficiency. To minimize well-to-well variation, MEFs were first transduced with 4F factors in bulk (FIG. 9A) and then reseeded at 3000 cells/well into gelatin-coated 96-well plates before inhibitor treatment. Starting at day 3 post-transduction, inhibitors were added at a final concentration of 2 μM and media were refreshed every other day with mES culture medium plus inhibitor. At day 13 post-transduction, plates were fixed in 4% paraformaldehyde and GFP-positive colonies were directly quantified microscopically.
Two columns of wells from each plate (columns 1 and 12) were treated with DMSO (vehicle) only and served as controls.
In test [10] the test system is mES cells. As to the kind of experiment: mES cell self-renewal and differentiation in LIF+ and LIF− conditions. In kind it is cell-based, mouse. The settings on record: 0.5 μM and 1 μM, 4 days. From the text:
Cells were harvested for RNA extraction and RT-qPCR of indicated mES self-renewal genes.
LIF withdrawal in both B6-treated and DMSO control cells promoted mES cell differentiation, as indicated by loss of colonies, based on morphology and AP staining (data not shown).

Test [11] has as its system GSK3β. As to the kind of experiment: Western blotting of phospho- and total GSK3β. The class given is cell-based, mouse. The settings on record: 4F-infected MEFs. The protocol:
4F-infected MEFs were treated with different doses of B6 inhibitor starting at day 3 post-infection for 48 hrs before being harvested for western blotting analysis.
The experiment was the same as FIG. 5C. Actin served as the loading control.
4F-infected MEFs were treated with 1 μM each of Akt inhibitor (Akt X) and B6.
Membranes were blocked with 5% milk in TBST for at least 1 hr at room temp or overnight at 4° C.
On the technique in general: Immunoblotting shows a protein as a band on a membrane.

The test system of test [12] is Aurora A kinase mRNA. As to the kind of experiment: RT-qPCR of Aurora A kinase mRNA. In kind it is cell-based, mouse. The conditions noted are these: 4F-infected MEFs, 1 μM, 2 days. The protocol: MEFs were infected with 4F for 3 days and treated under mock conditions or with DMSO or 1 μM B6 for 2 days prior to RT-qPCR analysis of total RNA.
as §1
Background: In qPCR the cycle at which signal appears reflects the starting amount.

For test [13], the system named is 4F-infected MEFs. The test is described as follows: Cell cycle analysis, PI staining and flow cytometry. The conditions noted are these: for cell cycle progression: various concentrations, 48 hr. In kind it is cell-based, mouse. The protocol: FIG. 24A is a series of images of DNA analysis by flow cytometry. 4F-infected MEFs were treated with different concentrations of B6 at day 3 post-infection. Cells were harvested after 48 hr of drug treatment, subjected to PI staining and analyzed for DNA content by flow cytometry.
FIG. 24B is a series of images of DNA analysis by flow cytometry. […] The experimental procedure was as in FIG. 24A.
Cell cycle analysis: MEFs or 4F-infected MEFs were treated with inhibitors for two days and then harvested and trypsinized before fixing in 75% ethanol overnight. Cells were centrifuged at 1000 rpm for 5 min, washed once with PBS, and treated with PI staining solution for at least 30 min at room temperature before flow cytometry analysis. ˜20000 events per sample were collected per analysis and cell cycle data was modeled using ModFit™.
Background: A flow cytometer gives signals particle by particle.

Test [14] concerns Aurora A kinase. The test is described as follows: Western blotting of Aurora A kinase protein. The class given is cell-based, mouse. The settings on record: wild type and 4F-infected MEFs (B6 1 μM, 2 days); 4F-infected MEFs (MLN8237, 48 hrs). The protocol: FIGS. 13A-13h are a series of graphical representations depicting Aurora A kinase inhibition by B6 promoting Akt mediated inactivation of GSK3β. FIG. 13A is a western blot showing B6 treatment increases aurora A kinase protein levels. Both 4F-infected (day 3) and mock MEFs were treated with 1 μM B6 for 2 days and cells were harvested for western blotting of Aurora A kinase. Actin served as loading control.
Cells were harvested 48 hrs after drug treatment for western blotting analysis of AurkA protein. Actin serves as loading control.
Western blotting: Total cell lysates were prepared by incubating cells in MPER buffer (PIERCE, 78503) on ice for 20 min, and then cleared by centrifugation at 13,000 rpm for 10 min. An equal volume of lysates was loaded onto 10% SDS-PAGE gels, and proteins were transferred to PVDF membranes (Bio-Rad, 1620177) using the semi-dry system (Bio-Rad). Membranes were blocked with 5% milk in TBST for at least 1 hr at room temp or overnight at 4° C. Antibodies used include: anti-mNanog (R&D, AF2729), anti-h/mSSEA1 (R&D, MAB2156), anti-Actin (Thermo, MS1295P0), anti-AFP (Abcam, ab7751), anti-Beta III tubulin (R&D systems, MAB1368), and anti-alpha actinin (Sigma, A7811), anti-mAurkA (Bethyl lab, A300-072A), anti-hAurkA (Bethyl lab, A300-071A), total-GSK3β (Cell signaling technology, 9315S), phospho-GSK3β (Cell Signaling Technology, 9323S).

For test [15], the target named is PDK1 (Homo sapiens, UniProt O15530). The conditions noted are these: kind of value not given; cited from earlier work.
Chain of PDK1 (O15530 whole entry): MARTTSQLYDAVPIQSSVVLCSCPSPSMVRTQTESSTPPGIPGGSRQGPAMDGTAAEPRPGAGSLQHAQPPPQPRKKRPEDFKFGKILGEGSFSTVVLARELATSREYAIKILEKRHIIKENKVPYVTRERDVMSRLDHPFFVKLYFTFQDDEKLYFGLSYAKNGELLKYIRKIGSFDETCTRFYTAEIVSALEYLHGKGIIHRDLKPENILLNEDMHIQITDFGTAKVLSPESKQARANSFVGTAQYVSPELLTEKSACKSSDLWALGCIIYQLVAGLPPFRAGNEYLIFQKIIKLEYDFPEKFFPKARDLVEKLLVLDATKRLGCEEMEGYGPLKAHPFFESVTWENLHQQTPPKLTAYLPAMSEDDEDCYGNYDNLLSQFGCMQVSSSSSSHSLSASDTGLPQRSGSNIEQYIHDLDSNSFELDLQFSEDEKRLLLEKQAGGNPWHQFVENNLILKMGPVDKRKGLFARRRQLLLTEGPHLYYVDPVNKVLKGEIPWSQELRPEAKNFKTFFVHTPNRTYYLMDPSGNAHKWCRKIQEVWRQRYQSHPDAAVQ
Test [16] has as its target Lck (Homo sapiens, UniProt P06239). The conditions noted are these: kind of value not given; cited from earlier work.
Test [17] deals with Cdk5/p25 (Homo sapiens, UniProt Q00535). The conditions noted are these: kind of value not given; cited from earlier work.
Test [18] addresses MAPKAP kinase-2 (Homo sapiens, UniProt P49137). The settings on record: kind of value not given; cited from earlier work.
The target in test [19] is PAK4 (Homo sapiens, UniProt O96013). The settings on record: kind of value not given; cited from earlier work.
In test [20] the target is PKCδ (Homo sapiens, UniProt Q05655). The settings on record: kind of value not given; cited from earlier work.
Chain of PKCδ (Q05655 whole entry): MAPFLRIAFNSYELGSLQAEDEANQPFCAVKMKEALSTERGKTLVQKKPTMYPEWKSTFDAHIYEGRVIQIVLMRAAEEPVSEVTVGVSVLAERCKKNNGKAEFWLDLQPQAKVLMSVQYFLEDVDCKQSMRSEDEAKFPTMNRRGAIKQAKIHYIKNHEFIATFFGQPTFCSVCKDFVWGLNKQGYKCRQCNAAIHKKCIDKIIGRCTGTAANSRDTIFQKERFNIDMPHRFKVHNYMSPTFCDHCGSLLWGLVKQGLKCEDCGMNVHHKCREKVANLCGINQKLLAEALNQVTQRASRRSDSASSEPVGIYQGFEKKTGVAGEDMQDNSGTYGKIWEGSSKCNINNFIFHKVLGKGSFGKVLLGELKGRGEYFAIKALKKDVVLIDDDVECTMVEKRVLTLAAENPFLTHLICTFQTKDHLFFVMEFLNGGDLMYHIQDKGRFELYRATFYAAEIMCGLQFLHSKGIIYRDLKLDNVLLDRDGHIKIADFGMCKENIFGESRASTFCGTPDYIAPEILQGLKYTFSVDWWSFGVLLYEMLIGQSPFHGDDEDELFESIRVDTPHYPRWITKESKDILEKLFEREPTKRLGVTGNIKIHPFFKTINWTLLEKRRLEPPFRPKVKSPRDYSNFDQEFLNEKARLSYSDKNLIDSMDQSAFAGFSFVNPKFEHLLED
Test [21] has as its target PKCγ (Homo sapiens, UniProt P05129). The conditions noted are these: kind of value not given; cited from earlier work.
Test [22] has as its target PKCβ (Homo sapiens, UniProt P05771). The conditions noted are these: kind of value not given; cited from earlier work.
Test [23] deals with Cdc25C-associated protein kinase 1 (Homo sapiens, UniProt P27448). The settings on record: kind of value not given; cited from earlier work.
Chain of Cdc25C-associated protein kinase 1 (P27448 whole entry): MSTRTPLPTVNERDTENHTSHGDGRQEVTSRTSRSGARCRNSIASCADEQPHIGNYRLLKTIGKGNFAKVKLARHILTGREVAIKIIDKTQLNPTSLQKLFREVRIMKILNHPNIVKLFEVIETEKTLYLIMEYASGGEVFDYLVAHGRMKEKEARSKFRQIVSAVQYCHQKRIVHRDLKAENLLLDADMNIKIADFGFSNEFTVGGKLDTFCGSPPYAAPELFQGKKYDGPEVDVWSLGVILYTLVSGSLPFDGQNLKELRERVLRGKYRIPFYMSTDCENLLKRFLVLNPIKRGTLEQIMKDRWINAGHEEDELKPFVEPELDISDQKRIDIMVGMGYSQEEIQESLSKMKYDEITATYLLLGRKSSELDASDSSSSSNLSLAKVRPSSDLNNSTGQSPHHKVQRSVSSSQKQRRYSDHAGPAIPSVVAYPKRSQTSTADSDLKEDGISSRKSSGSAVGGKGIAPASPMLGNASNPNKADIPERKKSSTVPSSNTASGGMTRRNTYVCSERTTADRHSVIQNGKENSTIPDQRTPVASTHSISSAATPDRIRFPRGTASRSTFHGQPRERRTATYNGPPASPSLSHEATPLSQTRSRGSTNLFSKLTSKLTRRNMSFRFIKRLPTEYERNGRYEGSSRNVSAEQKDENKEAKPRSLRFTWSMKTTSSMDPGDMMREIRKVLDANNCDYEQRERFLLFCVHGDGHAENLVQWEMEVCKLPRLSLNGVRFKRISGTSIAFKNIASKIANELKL
Test [24] addresses PKCα (Homo sapiens, UniProt P17252). The settings on record: kind of value not given; cited from earlier work.
The target of test [25] is Chk2 (Homo sapiens, UniProt O96017). The conditions noted are these: kind of value not given; cited from earlier work.
Test [26] has as its target Chk1 (Homo sapiens, UniProt O14757). The conditions noted are these: kind of value not given; cited from earlier work.
Test [27] addresses Cdk1 (Homo sapiens, UniProt P06493). The conditions noted are these: kind of value not given; cited from earlier work.
Test [28] concerns Nanog, Tet1 and Eras. As to the kind of experiment: RT-qPCR of mES-specific genes in 4F-transduced MEFs. The class given is cell-based, mouse. The settings on record: day 14 post transduction. The protocol: Data is derived from analysis of three independent wells. FIG. 23B is a histogram of relative mRNA level. […] Cells were harvested at day 14 post 4F transduction. […] Shown are data derived from three independent wells.
as §1

Chain of PKCβ (P05771 whole entry, species assumed): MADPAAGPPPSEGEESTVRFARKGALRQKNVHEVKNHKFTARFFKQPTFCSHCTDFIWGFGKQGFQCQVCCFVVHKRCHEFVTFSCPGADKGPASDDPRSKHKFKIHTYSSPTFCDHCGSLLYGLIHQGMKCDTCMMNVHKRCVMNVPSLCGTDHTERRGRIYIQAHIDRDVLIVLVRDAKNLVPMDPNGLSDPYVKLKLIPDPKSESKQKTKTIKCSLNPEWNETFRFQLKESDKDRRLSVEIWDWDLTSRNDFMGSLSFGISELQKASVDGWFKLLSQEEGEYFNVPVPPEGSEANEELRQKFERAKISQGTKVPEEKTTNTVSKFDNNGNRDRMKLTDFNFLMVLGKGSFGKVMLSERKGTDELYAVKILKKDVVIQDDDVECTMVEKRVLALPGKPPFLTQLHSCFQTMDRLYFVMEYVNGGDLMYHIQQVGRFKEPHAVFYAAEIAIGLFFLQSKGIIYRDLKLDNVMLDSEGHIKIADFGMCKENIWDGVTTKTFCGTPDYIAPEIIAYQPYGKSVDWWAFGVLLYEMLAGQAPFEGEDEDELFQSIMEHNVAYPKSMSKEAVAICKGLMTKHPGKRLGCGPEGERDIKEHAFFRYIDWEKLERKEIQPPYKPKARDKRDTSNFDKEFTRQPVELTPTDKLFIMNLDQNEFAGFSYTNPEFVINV
Chain of Cdk7/H/MAT1 (P50613 whole entry, species assumed): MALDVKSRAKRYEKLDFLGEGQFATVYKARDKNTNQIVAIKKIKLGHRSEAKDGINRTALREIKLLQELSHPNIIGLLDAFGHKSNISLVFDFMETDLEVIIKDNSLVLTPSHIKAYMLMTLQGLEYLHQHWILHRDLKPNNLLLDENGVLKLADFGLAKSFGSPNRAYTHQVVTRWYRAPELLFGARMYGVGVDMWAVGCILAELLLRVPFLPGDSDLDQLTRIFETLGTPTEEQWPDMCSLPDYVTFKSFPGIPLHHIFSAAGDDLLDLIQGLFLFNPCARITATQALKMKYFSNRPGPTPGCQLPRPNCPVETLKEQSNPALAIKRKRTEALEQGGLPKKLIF
Chain of Cdk7/H/MAT1 (P51946 whole entry partner, species assumed): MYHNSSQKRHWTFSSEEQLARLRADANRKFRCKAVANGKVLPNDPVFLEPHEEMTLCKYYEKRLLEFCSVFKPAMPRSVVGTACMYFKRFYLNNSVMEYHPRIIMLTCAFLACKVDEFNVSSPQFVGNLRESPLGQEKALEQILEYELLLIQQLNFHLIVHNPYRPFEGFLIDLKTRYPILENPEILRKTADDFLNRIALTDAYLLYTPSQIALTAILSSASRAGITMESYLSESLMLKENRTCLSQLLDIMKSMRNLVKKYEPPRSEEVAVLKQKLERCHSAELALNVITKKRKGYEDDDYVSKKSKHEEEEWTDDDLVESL
Chain of Cdk7/H/MAT1 (P51948 whole entry partner, species assumed): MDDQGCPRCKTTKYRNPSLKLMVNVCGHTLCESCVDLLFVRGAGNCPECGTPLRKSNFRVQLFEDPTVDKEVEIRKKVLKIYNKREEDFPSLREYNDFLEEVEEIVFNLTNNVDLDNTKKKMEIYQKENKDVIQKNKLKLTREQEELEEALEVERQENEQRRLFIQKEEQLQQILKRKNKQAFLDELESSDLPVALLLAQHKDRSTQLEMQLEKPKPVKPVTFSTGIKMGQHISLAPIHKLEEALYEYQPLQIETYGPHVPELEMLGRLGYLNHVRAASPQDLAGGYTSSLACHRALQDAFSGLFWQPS
Chain of Lck (P06239 whole entry): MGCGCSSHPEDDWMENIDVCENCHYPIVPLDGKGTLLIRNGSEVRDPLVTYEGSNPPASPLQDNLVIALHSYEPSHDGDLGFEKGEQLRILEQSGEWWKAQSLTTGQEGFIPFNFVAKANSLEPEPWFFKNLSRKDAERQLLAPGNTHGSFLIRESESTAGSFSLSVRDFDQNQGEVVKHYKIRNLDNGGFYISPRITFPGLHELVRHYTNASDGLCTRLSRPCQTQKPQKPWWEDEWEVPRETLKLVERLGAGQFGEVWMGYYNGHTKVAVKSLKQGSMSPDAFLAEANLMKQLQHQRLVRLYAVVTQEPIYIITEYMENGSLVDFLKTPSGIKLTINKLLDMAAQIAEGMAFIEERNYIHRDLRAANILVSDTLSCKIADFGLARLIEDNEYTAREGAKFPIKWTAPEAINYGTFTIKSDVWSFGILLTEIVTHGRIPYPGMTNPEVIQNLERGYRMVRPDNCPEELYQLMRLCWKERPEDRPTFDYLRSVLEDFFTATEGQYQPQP

As for `CC(C)c1nn(-c2c(Cl)cccc2Cl)c2nc(Cc3ccc(OCCO)cc3)[nH]c(=O)c12` [BIM-0086744], the IC50 in [1] is 71 nM; in test [2], 48 nM; in test [3], 9 nM; in test [4] it was 9 nM; in [5] it was 10 nM.
Consider `c1nc2nc(Nc3ccc(N4CCOCC4)cc3)nc(NC3CCCCC3)c2[nH]1` [BIM-0207192, Reversine], for which the “Potential Targets: MEK1” value in test [6] is reported as “MEK1 (8 nM), myosin II heavy”. In addition, in test [7], the “Potential Targets: myosin II heavy chain” value was “chain (10 nM), Aurora kinases”.
In the case of `O=C(Nc1cccc(Nc2nccc(Nc3cccc(C(F)(F)F)c3)n2)c1)C1CC1` [BIM-0086660], in test [8], the “expression levels of genes upstream of Akt (Pdk1, Src, Pten, p85α)” value is “significant changes were not observed”. The “reprogramming, Oct4-GFP+ colonies, dose/response” value in [9] (0.5 μM, drug from day 3, colonies at day 13) is “potent enhancers”. Moreover, the “reprogramming, Oct4-GFP+ colonies” value in test [9] (secondary screen, 1 μM, vs DMSO) is “enhanced reprogramming more robustly at 1 μM than at 2 μM”. In addition, in [10], the “Oct4 expression in mES cells” value was “very small increase”. Further, the “mES self-renewal or differentiation” value in test [10] (LIF+ and LIF−) was “a significant effect on either mES self-renewal (in the presence of LIF) or differentiation (following LIF withdrawal) was not seen”. For the same compound, the “GSK3β total protein levels” value in test [11] (48 hrs) was “unchanged”. The phospho-GSK3β result in test [11] (different doses from day 3 post-infection for 48 hrs) was “significant increase in phospho-GSK3β”. In addition, the “AurkA mRNA levels” value in [12] is “not significantly altered”. The cell cycle progression result in test [13] was “little change in cell cycle progression”. In test [14], the AurkA protein levels entry is recorded as “increased AurkA protein levels relative to untreated cells”.
On to `CN[C@@H]1C[C@H]2O[C@@](C)([C@@H]1OC)n1c3ccccc3c3c4c(c5c6ccccc6n2c5c31)C(=O)N[C@@H]4O` [BIM-0207189, UCN-01], for which, in test [15], the “Potential Targets: PDK1” value is given as 33 nM. Also, the “Potential Targets: Lck” value in test [16] is 50 nM. In [17], the “Potential Targets: Cdk5/p25” value is given as 150 nM. Further, in [18], the “Potential Targets: MAPKAP kinase-2” value is reported as 95 nM. Also, the “Potential Targets: PAK4” value in [19] is on record as 50 nM. Also, the “Potential Targets: PKCδ” value in [20] is recorded as 590 nM. Moreover, the “Potential Targets: PKCγ” value in test [21] is on record as 30 nM. Besides, the “Potential Targets: PKCβ” value in test [22] is recorded as 34 nM. In addition, in [23], the “Potential Targets: Cdc25C-associated protein kinase 1” value is on record as 27 nM. Also, the “Potential Targets: PKCα” value in test [24] was 9 nM. The “Potential Targets: Chk2” value in test [25] is given as 1.04 μM for Chk1, Cdc25C-. In test [26], the “Potential Targets: Chk1” value is 7 nM. In addition, the “Potential Targets: Cdk1” value in test [27] was 50 nM.
Turning to `COc1cc(Nc2ncc3c(n2)-c2ccc(Cl)cc2C(c2c(F)cccc2OC)=NC3)ccc1C(=O)O` [MLN8237], the enhancement of reprogramming result in [9] (10 nM, from day 3 for 10 days) was “approximately 4 fold”. Moreover, the “number of GFP+ colonies” value in test [9] (100 nM) is given as “significant increase in the number of GFP+ colonies”. Also, the cell cycle entry in [13] (10 nM) was “did not alter the cell cycle”. In addition, the “number of cells in G2” value in test [13] (100 nM) is reported as “increased the number of cells in G2”. The cell cycle progression entry in [13] was “little change in cell cycle progression”. Moreover, the mES-specific gene expression entry in [28] was “increases in mES-specific gene expression”. The AurkA protein levels result in test [14] is given as “Increased AurkA protein levels”.
